In patent publication US7902227B2, “C-7 isoxazolinyl quinolone / naphthyridine derivatives useful as antibacterial agents” (Janssen Pharmaceutica NV., priority 2008, dated 2011):
Converted amounts (≈) assume the structure as drawn.

Columns and labels:
Assay type in all cases: cell-based
[1] = tested on: Staphylococcus aureus OC4172; assay: In vitro antibacterial activity (MIC), microdilution broth method (NCCLS), strain A; settings: cation adjusted Mueller-Hinton broth, 35° C., 16-20 hours
Experimental: (§1) Minimal inhibitory concentration (MIC) has been an indicator of in vitro antibacterial activity widely used in the art. The in vitro antimicrobial activity of representative compounds of the present invention was determined by the microdilution broth method following the test method from the National Committee for Clinical Laboratory Standards (NCCLS). This method is described in the NCCLS Document M7-A4, Vol. 17, No. 2, “Methods for Dilution Antimicrobial Susceptibility Test for Bacteria that Grow Aerobically—Fourth Edition”, which is incorporated herein by reference.
(§2) In this method two-fold serial dilutions of drug in cation adjusted Mueller-Hinton broth are added to wells in microdilution trays. The test organisms are prepared by adjusting the turbidity of actively growing broth cultures so that the final concentration of test organism after it is added to the wells is approximately 5×10^4 CFU/well.
(§3) Following inoculation of the microdilution trays, the trays are incubated at 35° C. for 16-20 hours and then read. […] The amount of growth in the wells containing the test compound is compared with the amount of growth in the growth-control wells (no test compound) used in each tray. As set forth in Table 4, representative compounds of the present invention were tested against a variety of pathogenic bacteria resulting in a range of activities depending on the organism tested.

[2] = tested on: strain B, fluoroquinolone-resistant clinical isolate of Streptococcus pneumoniae; assay: In vitro antibacterial activity (MIC), microdilution broth method (NCCLS), strain B; settings: read-out: In vitro Antibacterial Activity MIC, B
Experimental: as §1, §2, §3

[3] = tested on: Streptococcus pneumoniae ATCC 49619; assay: In vitro antibacterial activity (MIC), microdilution broth method (NCCLS), strain E; settings: ATCC49619, 35° C., 16-20 hours
Experimental: as §1, §2, §3

[4] = tested on: strain D, fluoroquinolone-resistant clinical isolate of Streptococcus pneumoniae; assay: In vitro antibacterial activity (MIC), microdilution broth method (NCCLS), strain D; settings: read-out: In vitro Antibacterial Activity MIC, D
Experimental: as §1, §2, §3

[5] = tested on: strain C, fluoroquinolone-resistant clinical isolate of Streptococcus pneumoniae; assay: In vitro antibacterial activity (MIC), microdilution broth method (NCCLS), strain C; settings: read-out: In vitro Antibacterial Activity MIC, C
Experimental: as §1, §2, §3

| Compound | MIC [1] | MIC [2] | MIC [3] | MIC [4] | MIC [5] |
| --- | --- | --- | --- | --- | --- |
| O=C(O)c1cn(-c2ccc(F)cc2F)c2nc(N3CC4ON=C(CO)C4C3)c(F)cc2c1=O (stereo not shown) [ID No. 107, 1-(2,4-Difluoro-phenyl)-6-fluoro-7-(3-hydroxymethyl-3a,4,6,6a-tetrahydro-pyrrolo[3,4-d]isoxazol-5-yl)-4-oxo-1,4-dihydro-[1,8]naphthyridine-3-carboxylic acid] | 0.12 µg/mL (≈ 0.261 µM) | > 16 µg/mL | 2 µg/mL (≈ 4.34 µM) | > 16 µg/mL | > 16 µg/mL |
| O=C(O)c1cn(-c2ccc(F)cc2F)c2nc(N3CC4ON=C(CN5C(=O)c6ccccc6C5=O)C4C3)c(F)cc2c1=O (stereo not shown) [ID No. 108, 1-(2,4-Difluoro-phenyl)-7-[3-(1,3-dioxo-1,3-dihydro-isoindol-2-ylmethyl)-3a,4,6,6a-tetrahydro-pyrrolo[3,4-d]isoxazol-5-yl]-6-fluoro-4-oxo-1,4-dihydro-[1,8]naphthyridine-3-carboxylic acid] | 0.25 µg/mL (≈ 0.424 µM) | > 16 µg/mL | 8 µg/mL (≈ 13.6 µM) | > 16 µg/mL | > 16 µg/mL |
| COc1ccc(C2=NOC3CN(c4nc5c(cc4F)c(=O)c(C(=O)O)cn5C4CC4)CC23)cn1 (stereo not shown) [ID No. 111, 1-Cyclopropyl-6-fluoro-7-[3-(6-methoxypyridin-3-yl)-3a,4,6,6a-tetrahydro-pyrrolo[3,4-d]isoxazol-5-yl]-4-oxo-1,4-dihydro-[1,8]naphthyridine-3-carboxylic acid] | 0.03 µg/mL (≈ 0.0645 µM) | 8 µg/mL (≈ 17.2 µM) | 0.5 µg/mL (≈ 1.07 µM) | 2 µg/mL (≈ 4.3 µM) | 4 µg/mL (≈ 8.59 µM) |
| O=C(O)c1cn(C2CC2)c2nc(N3CC4ON=C(c5ccc(C(F)(F)F)nc5)C4C3)c(F)cc2c1=O (stereo not shown) [ID No. 112, 1-Cyclopropyl-6-fluoro-4-oxo-7-[3-(6-trifluoromethyl-pyridin-3-yl)-3a,4,6,6a-tetrahydro-pyrrolo[3,4-d]isoxazol-5-yl]-1,4-dihydro-[1,8]naphthyridine-3-carboxylic acid] | 0.25 µg/mL (≈ 0.497 µM) | 16 µg/mL (≈ 31.8 µM) | 2 µg/mL (≈ 3.97 µM) | 8 µg/mL (≈ 15.9 µM) | > 16 µg/mL |
| O=C(O)c1cn(C2CC2)c2nc(N3CC4ON=C(c5ccccn5)C4C3)c(F)cc2c1=O (stereo not shown) [ID No. 113, 1-Cyclopropyl-6-fluoro-4-oxo-7-(3-pyridin-2-yl-3a,4,6,6a-tetrahydro-pyrrolo[3,4-d]isoxazol-5-yl)-1,4-dihydro-[1,8]naphthyridine-3-carboxylic acid] | 0.06 µg/mL (≈ 0.138 µM) | 16 µg/mL (≈ 36.7 µM) | 1 µg/mL (≈ 2.3 µM) | 4 µg/mL (≈ 9.19 µM) | 2 µg/mL (≈ 4.59 µM) |
| O=C(O)c1cn(C2CC2)c2nc(N3CC4ON=C(c5ccncc5)C4C3)c(F)cc2c1=O (stereo not shown) [ID No. 115] | 0.06 µg/mL (≈ 0.138 µM) | 16 µg/mL (≈ 36.7 µM) | 1 µg/mL (≈ 2.3 µM) | 4 µg/mL (≈ 9.19 µM) | 8 µg/mL (≈ 18.4 µM) |
| CCOC(=O)C1=NOC2CN(c3nc4c(cc3F)c(=O)c(C(=O)O)cn4C3CC3)CC12 (stereo not shown) [ID No. 116, 1-Cyclopropyl-7-(3-ethoxycarbonyl-3a,4,6,6a-tetrahydro-pyrrolo[3,4-d]isoxazol-5-yl)-6-fluoro-4-oxo-1,4-dihydro-[1,8]naphthyridine-3-carboxylic acid] | 0.12 µg/mL (≈ 0.279 µM) | > 16 µg/mL | 4 µg/mL (≈ 9.29 µM) | > 16 µg/mL | > 16 µg/mL |
| O=C(O)c1cn(C2CC2)c2nc(N3CC4ON=C(CO)C4C3)c(F)cc2c1=O (stereo not shown) [ID No. 117, 1-Cyclopropyl-6-fluoro-7-(3-hydroxymethyl-3a,4,6,6a-tetrahydro-pyrrolo[3,4-d]isoxazol-5-yl)-4-oxo-1,4-dihydro-[1,8]naphthyridine-3-carboxylic acid] | 0.5 µg/mL (≈ 1.29 µM) | 16 µg/mL (≈ 41.2 µM) | 8 µg/mL (≈ 20.6 µM) | 16 µg/mL (≈ 41.2 µM) | 16 µg/mL (≈ 41.2 µM) |
| O=C(O)c1cn(C2CC2)c2nc(N3CC4ON=C(CN5C(=O)c6ccccc6C5=O)C4C3)c(F)cc2c1=O (stereo not shown) [ID No. 118, 1-Cyclopropyl-7-[3-(1,3-dioxo-1,3-dihydro-isoindol-2-ylmethyl)-3a,4,6,6a-tetrahydro-pyrrolo[3,4-d]isoxazol-5-yl]-6-fluoro-4-oxo-1,4-dihydro-[1,8]naphthyridine-3-carboxylic acid] | 2 µg/mL (≈ 3.86 µM) | > 16 µg/mL | 16 µg/mL (≈ 30.9 µM) | > 16 µg/mL | > 16 µg/mL |
| CCOC(=O)C1=NOC2CN(c3c(F)cc4c(=O)c(C(=O)O)cn(C5CC5)c4c3OC)CC12 (stereo not drawn) [ID No. 124, 7-[cis-3-(3-Ethoxycarbonyl)-3a,4,6,6a-tetrahydropyrrolo[3,4-d]isoxazol-5-yl]-1-cyclopropyl-8-methoxy-6-fluoro-4-oxo-1,4-dihydroquinoline-3-carboxylic acid] | 0.25 µg/mL (≈ 0.544 µM) | > 16 µg/mL | 8 µg/mL (≈ 17.4 µM) | > 16 µg/mL | > 16 µg/mL |
| C[C@H]1COc2c(N3CC4ON=C(c5ccccn5)C4C3)c(F)cc3c(=O)c(C(=O)O)cn1c23 (stereo partly shown) [ID No. 129] | 0.06 µg/mL (≈ 0.133 µM) | > 16 µg/mL | 1 µg/mL (≈ 2.22 µM) | 4 µg/mL (≈ 8.88 µM) | 16 µg/mL (≈ 35.5 µM) |
| CCOC(=O)C1=NOC2CN(c3c(F)cc4c(=O)c(C(=O)O)cn5c4c3OC[C@@H]5C)CC12 (stereo partly drawn) [ID No. 131, 7-[cis-3-(ethoxycarbonyl)-3a,4,6,6a-tetrahydropyrrolo[3,4-d]isoxazol-5-yl]S-(−)-9,10-difluoro-2,3-dihydro-3-methyl-7-oxo-7H-pyrido-[1,2,3-de][1,4]-benzoxazine-6-carboxylic acid] | 1 µg/mL (≈ 2.25 µM) | > 16 µg/mL | 16 µg/mL (≈ 35.9 µM) | > 16 µg/mL | > 16 µg/mL |
| COc1ccc(C2=NOC3CN(c4cc5c(cc4F)c(=O)c(C(=O)O)cn5C4CC4)CC23)cn1 (stereo not shown) [ID No. 134, 1-Cyclopropyl-6-fluoro-7-[3-(6-methoxy-pyridin-3-yl)-3a,4,6,6a-tetrahydro-pyrrolo[3,4-d]isoxazol-5-yl]-4-oxo-1,4-dihydro-quinoline-3-carboxylic acid] | 0.12 µg/mL (≈ 0.258 µM) | 16 µg/mL (≈ 34.4 µM) | 2 µg/mL (≈ 4.31 µM) | 8 µg/mL (≈ 17.2 µM) | > 16 µg/mL |
| O=C(O)c1cn(C2CC2)c2cc(N3CC4ON=C(c5ccccn5)C4C3)c(F)cc2c1=O (stereo not shown) [ID No. 135, 1-Cyclopropyl-6-fluoro-7-[3-(pyridin-2-yl)-3a,4,6,6a-tetrahydro-pyrrolo[3,4-d]isoxazol-5-yl]-4-oxo-1,4-dihydro-quinoline-3-carboxylic acid] | 0.03 µg/mL (≈ 0.0691 µM) | 8 µg/mL (≈ 18.4 µM) | 1 µg/mL (≈ 2.3 µM) | 4 µg/mL (≈ 9.21 µM) | 2 µg/mL (≈ 4.6 µM) |
| O=C(O)c1cn(C2CC2)c2cc(N3CC4ON=C(c5cccnc5)C4C3)c(F)cc2c1=O (stereo not shown) [ID No. 136, 1-Cyclopropyl-6-fluoro-7-[3-(pyridin-3-yl)-3a,4,6,6a-tetrahydro-pyrrolo[3,4-d]isoxazol-5-yl]-4-oxo-1,4-dihydro-quinoline-3-carboxylic acid] | 0.06 µg/mL (≈ 0.138 µM) | 8 µg/mL (≈ 18.4 µM) | 1 µg/mL (≈ 2.3 µM) | 8 µg/mL (≈ 18.4 µM) | 4 µg/mL (≈ 9.21 µM) |
| NCC1=NOC2CN(c3nc4c(cc3F)c(=O)c(C(=O)O)cn4-c3ccc(F)cc3F)CC12 (stereo not shown) [ID No. 200, 7-(3-Aminomethyl-3a,4,6,6a-tetrahydro-pyrrolo[3,4-d]isoxazol-5-yl)-1-(2,4-difluoro-phenyl)-6-fluoro-4-oxo-1,4-dihydro-[1,8]naphthyridine-3-carboxylic acid] | 0.12 µg/mL (≈ 0.261 µM) | > 16 µg/mL | 1 µg/mL (≈ 2.18 µM) | > 16 µg/mL | > 16 µg/mL |
| NCC1=NOC2CN(c3nc4c(cc3F)c(=O)c(C(=O)O)cn4C3CC3)CC12 (stereo not shown) [ID No. 201, 7-(3-Aminomethyl-3a,4,6,6a-tetrahydro-pyrrolo[3,4-d]isoxazol-5-yl)-1-cyclopropyl-6-fluoro-4-oxo-1,4-dihydro-[1,8]naphthyridine-3-carboxylic acid] | 0.5 µg/mL (≈ 1.29 µM) | > 16 µg/mL | 4 µg/mL (≈ 10.3 µM) | > 16 µg/mL | > 16 µg/mL |
